Patent US20230048888A1, “USE OF TRIAZOLOTRIAZINE DERIVATIVE IN TREATMENT OF DISEASES” (ZHEJIANG VIMGREEN PHARMACEUTICALS, LTD., priority 2019, published 2023)
pIC50: −log10 of the molar value.

Key:
[1] = system: haloperidol-induced stiffness; assay: Haloperidol-induced Parkinson's disease stiffness model in CD-1 mice (rearing and bar tests); type: in vivo; settings: Experiment I
Description: Parkinson's disease (PD) is a common class of degenerative disease of the nervous system with the main pathological changes including the loss of substantia nigra dopaminergic neurons and the decrease of dopamine transmitter content, leading to tremor at rest, muscle stiffness, […], postural reflex disorders and other clinical symptoms. Haloperidol, a dopamine D2 receptor blocker, can block the dopamine D2 receptor in the striatum, leading to mouse dystonic postures, namely, stiffness and hypokinesia. This model is a recognized animal model of Parkinson's syndrome. The ameliorative effect of a test substance on the stiffness symptom of Parkinson's disease induced by haloperidol in CD-1 mice was evaluated. 57 SPF-grade male CD-1 mice (4 weeks old at the time of purchase and 8 weeks old at the time of experiment) with the weight of about 40 g were randomly divided into 5 groups, namely, a vehicle group (n=11), a group of 1 mg/kg benzene sulfonate of Compound 40 (n=11), a group of 3 mg/kg benzene sulfonate of Compound 40 (n=12), a group of 10 mg/kg benzene sulfonate of Compound 40 (n=12), and a group of 30 mg/kg benzene sulfonate of Compound 40 (n=11). 1 mg/kg haloperidol was injected subcutaneously at an injection volume of 10 ml/kg. 30 minutes after the injection, Compound 40 at each dose was intragastrically infused at a volume of 10 ml/kg. At the 1st hour and the 4th hour after the administration was completed, the rearing and bar tests were performed respectively, and the number of standings and on-bar time of the mice were counted to evaluate the ameliorative effect of Compound 40 on the stiffness symptom of haloperidol-induced Parkinson's disease in CD-1 mice. […] Firstly, the acetate of Compound 22 at each dose was intragastrically infused at a volume of 10 ml/kg. After 30 min, 1 mg/kg haloperidol was injected subcutaneously at an injection volume of 10 ml/kg. At the 1st hour and the 4th hour after the administration was completed, the rearing and bar tests were performed respectively, and the number of standings and on-bar time of the mice were counted to evaluate the ameliorative effect of the acetates of Compound 22 on the stiffness symptom of haloperidol-induced Parkinson's disease in CD-1 mice. […] Firstly, Compound 27 at each dose was intragastrically infused at a volume of 10 ml/kg. After 30 min, 1 mg/kg haloperidol was injected subcutaneously at an injection volume of 10 ml/kg. At the 1st hour and the 4th hour after the administration was completed, the rearing and bar tests were performed respectively, and the number of standings and on-bar time of the mice were counted to evaluate the ameliorative effect of Compound 27 on the stiffness symptom of haloperidol-induced Parkinson's disease in CD-1 mice. The mice were subcutaneously injected with haloperidol at abdomen at a dose of 1 mg/kg, with the concentration of a working solution of 0.1 mg/ml and an injection volume of 10 ml/kg. At the 1st hour and the 4th hour after drug intervention, the mice were put into a white transparent plastic bucket with a diameter of 20 cm and a height of 21 cm. The mice were allowed to acclimate in the bucket for 5 min before starting video recording. The spontaneous activity behaviors of the mice within 10 minutes were recorded, whereby the number of standings was counted. The more the standings, the more frequent the spontaneous exploration activities of the mice, and the lower the degree of stiffness. At the time points of 1st and 4th hours after the rearing test was completed, bar test was carried out. The mice were placed on a long wooden bar with a diameter of […] and a height of 6 cm. The mice were let to hold the wooden bar with forelimbs, only with the buttocks or hind limbs on the ground. The timing was stopped when the hind limbs left the bench top or the fore limbs left the wooden bar, and the on-bar time of the mice was recorded. Each mouse was tested 3 times, and the maximum on-bar time and the average on-bar time were counted. […]

[2] = system: haloperidol-induced stiffness; assay: Haloperidol-induced Wistar rat stiffness model (bar test, rearing); type: in vivo, Wistar rats; settings: for Number of standings: 1st hour after haloperidol
Description: Time of bar test: The stiffness of the rats was tested by the bar test. That is, a wooden bar with a diameter of 8 mm was fixed between 2 iron stands and was 10 cm from the bench top; and then, the rat's tail was grabbed to make its front paws rest on the wooden bar and its hind paws or buttocks on the ground. Generally, the rat needs to acclimate several times when it was tested for the first time. The time for the forelimbs to drop from the bar or the time for the hind limbs to leave the bench top were tested, each rat was tested 3 times. Number of standings: the number of standings of the rat was measured by the rearing test. That is, the rat was placed in a 27*52 cm cage and acclimate for 5 minutes, and the spontaneous activity behavior, i.e., the number of standings, of the rat within 10 minutes was recorded. When the rat's hind limbs stood with two forelimbs raised over the shoulders and touched the ground, one standing is counted, and the one forelimb lift was excluded. Generally, the rat would raise its forelimbs to touch the cage wall. If the rat raised its forelimbs over the shoulders several times without falling to the ground, only one standing was counted. The time of bar test was taken as a measurement index, including the average time and the maximum time. Long time indicates severe stiffness, short time indicates mild stiffness. After drug treatment, the shorter the time of bar test, the better the effect of the drug on relieving stiffness. The number of standings was counted by the rearing test. The more the number of standings, the more frequent the spontaneous exploration activity of the rat, and the lower the stiffness. The statistical analysis between groups was performed on the data by using Prism GraphPad 7.0 independent sample T test, and P<0.05 was considered as a significant difference.

[3] = Pharmacokinetics of Compound 40 and benzene sulfonate thereof in ICR mice, PO; settings: mouse, in vivo, PO 100 mg/kg (based on free base), 40% Hp-β-CD
adenosine receptors A2A = target: T1, adenosine receptors A2A (Homo sapiens, UniProt P29274); assay: TR-FRET-based cAMP accumulation assay in hADORA2A-HEK293 cells; type: cell-based; settings: NECA at EC80, hADORA2A-HEK293, read-out: A2AR activity (IC50)
T1 construct: expressed in transfected cells; host or cells: HEK293 (hADORA2A-HEK293)
Description: The inhibitory effects of the test compounds on the adenosine receptors A2A were evaluated by TR-FRET-based cAMP accumulation assay. The method included, in HEK293 cells (hADORA2A-HEK293) expressing A2AR, the production of cAMP stimulated by NECA and the inhibitory effect of A2A receptor antagonists on cAMP. All cells were cultured in a complete medium at 37° C. in the presence of 5% CO2. After being digested with trypsin, the cells were collected by centrifugation at 200 g for 5 minutes. The cells were resuspended in a fresh complete medium, and then the cell viability was counted by a trypan blue exclusion method. […] The cells were diluted with Hank's buffer solution containing HEPES (5 mM), BSA stabilizer (0.1%) and Rolipram (10 μM), then added to a 384-well white non-transparent plate (cells/well, 10 μl/well), and incubated with the test compound at an appropriate concentration (11 concentrations) for 20 minutes at room temperature. Then, the A2A receptor agonist NECA (final concentration=EC80, which was determined in the same experiment performed earlier) was added to the sample, and the sample was incubated again at 37° C. for 30 minutes.
An inhibition rate (%) was calculated according to the following formula, and an IC50 value was calculated from a concentration-inhibition (%) curve after log conversion.
A curve corresponding to the dose was fitted by using XLfit software and the IC50 was determined.

[4] = Pharmacokinetics of test compounds in SD rats (15.2; IV and PO, mixed administration); type: in vivo; settings: male, Sprague-Dawley, rat, plasma, SD rats, PO
Description: Administration dose: the compounds in this group were all administered in a mixed way, with 6 compounds in each group for mixed PO administration.
Blood was collected based on the blood collection points in the test protocol. 50 μL of plasma sample was added with acetonitrile (containing 5 ng/mL Verapamil) being 3 folds of the volume thereof; the resulting mixture was vortexed for 30 s, and then centrifuged for 15 min at 15,000 rpm at 4° C.; and 10μ L of supernatant was taken for LC-MS/MS analysis.
For each compound, 3 male SD rats weighing 200-220 g were fasted for one night before dosage, but had access to water.
Orally intragastric administration: before intragastric administration and at 0.083 h, 0.25 h, 0.5 h, 1 h, 2 h, 4 h, 8 h and 24 h after administration (for Compounds 40, 27, 40 and 47), or at 0.25 h, 0.5 h, 1 h, 4 h, 6 h and 8 h after administration (for Compounds 44 and 48), orbital blood was collected and put in a test tube that was treated with heparin sodium, and after centrifugation, the supernatant plasma was collected for LC-MS/MS analysis.
The plasma samples were processed according to the method for “sample treatment” and then analyzed by LC-MS/MS, accompanied with the standard curve and quality control samples. At a time point when the upper limit of quantification was exceeded, the samples were diluted 10 or 100 folds for analysis. All measured data were collected and processed by Analyst 1.6.3 software, and the data were calculated and processed with Microsoft Excel. With DAS 3.2.8 software, the pharmacokinetic parameters were calculated by the statistical moment method. The pharmacokinetic parameters mainly include Tmax, t1/2, Cmax, AUC(0-t), etc.

[5] = as above; type: in vivo; settings: PO, 3 mg/kg
[6] = 10 mg/kg intragastric, 1st hour
[7] = 10 mg/kg intragastric, 4th hour
[8] = 30 mg/kg intragastric, 1st hour
[9] = 30 mg/kg intragastric, 4th hour
[10] = male, Sprague-Dawley, rat, plasma

T1 sequence (P29274 whole entry): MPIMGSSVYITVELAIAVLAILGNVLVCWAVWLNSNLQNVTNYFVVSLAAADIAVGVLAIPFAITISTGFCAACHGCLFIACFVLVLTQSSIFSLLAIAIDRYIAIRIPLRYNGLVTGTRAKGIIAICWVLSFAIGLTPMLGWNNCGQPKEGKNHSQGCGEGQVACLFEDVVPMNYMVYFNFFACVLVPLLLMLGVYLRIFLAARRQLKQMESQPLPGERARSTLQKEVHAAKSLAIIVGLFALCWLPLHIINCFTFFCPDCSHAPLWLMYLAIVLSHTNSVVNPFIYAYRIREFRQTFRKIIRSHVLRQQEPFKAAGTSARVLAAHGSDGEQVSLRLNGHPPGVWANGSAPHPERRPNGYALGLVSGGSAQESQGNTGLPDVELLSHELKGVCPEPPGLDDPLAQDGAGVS

For `Cn1nnc(-c2ccc(CCNc3nc(N)n4nc(-c5ccco5)nc4n3)cc2)n1.O=S(=O)(O)c1ccccc1` [Benzene sulfonate of Compound 40, N^5-(4-(2-methyl-2H-tetrazol-5-yl)phenethyl)-2-(furan-2-yl)-[1,2,4]triazolo[1,5-a][1,3,5]triazine-5,7-diamine benzene sulfonate], the “Average on-bar time” value ([1]; 1 mg/kg intragastric, 1st hour) was 237.67 ± 40.20 s, the “Maximum on-bar time” value ([1]; 1 mg/kg intragastric, 1st hour) was 356.43 ± 55.79 s and the Number of standings ([1]; 1 mg/kg intragastric, 1st hour) was 17.00 ± 1.99. For the same compound, the “Average on-bar time” value ([1]; 1 mg/kg intragastric, 4th hour) was 241.14 ± 31.32 s, the “Maximum on-bar time” value ([1]; 1 mg/kg intragastric, 4th hour) was 361.29 ± 53.92 s and the Number of standings ([1]; 1 mg/kg intragastric, 4th hour) was 8.71 ± 2.68. For the same compound, the “Average on-bar time” value ([1]; 3 mg/kg intragastric, 1st hour) was 120.05 ± 35.31 s, the “Maximum on-bar time” value ([1]; 3 mg/kg intragastric, 1st hour) was 184.00 ± 50.55 s and the Number of standings ([1]; 3 mg/kg intragastric, 1st hour) was 17.00 ± 2.99. For the same compound, the “Average on-bar time” value ([1]; 3 mg/kg intragastric, 4th hour) was 171.76 ± 52.86 s, the “Maximum on-bar time” value ([1]; 3 mg/kg intragastric, 4th hour) was 225.14 ± 51.96 s and the Number of standings ([1]; 3 mg/kg intragastric, 4th hour) was 14.86 ± 1.89. The “Average on-bar time” value [1, 6] was 36.10 ± 5.88 s, the “Maximum on-bar time” value [1, 6] was 57.00 ± 11.21 s and the Number of standings [1, 6] was 34.90 ± 4.75. The “Average on-bar time” value [1, 7] was 66.07 ± 13.96 s, the “Maximum on-bar time” value [1, 7] was 96.10 ± 23.06 s and the Number of standings [1, 7] was 17.80 ± 4.32. The “Average on-bar time” value [1, 8] was 26.50 ± 5.88 s, the “Maximum on-bar time” value [1, 8] was 34.88 ± 6.68 s and the Number of standings [1, 8] was 43.25 ± 3.89. The “Average on-bar time” value [1, 9] was 20.00 ± 1.28 s, the “Maximum on-bar time” value [1, 9] was 24.13 ± 1.67 s and the Number of standings [1, 9] was 25.13 ± 3.25. For the same compound, the “Average on-bar time” value ([2]; 3 mg/kg intragastric) was 212.67 ± 51.43 s, the “Maximum on-bar time” value ([2]; 3 mg/kg intragastric) was 266.63 ± 50.73 s and the Number of standings ([2]; 3 mg/kg intragastric) was 1.75 ± 0.60. For the same compound, the “Average on-bar time” value ([2]; 10 mg/kg intragastric) was 41.67 ± 16.50 s, the “Maximum on-bar time” value ([2]; 10 mg/kg intragastric) was 69.67 ± 28.71 s and the Number of standings ([2]; 10 mg/kg intragastric) was 7.89 ± 0.98. The “Average on-bar time” value ([2]; 30 mg/kg intragastric) was 12.29 ± 1.41 s, the “Maximum on-bar time” value ([2]; 30 mg/kg intragastric) was 18.00 ± 2.21 s and the Number of standings ([2]; 30 mg/kg intragastric) was 13.00 ± 0.96. It also gave an AUC(0-t) [3] of 138000 ng·h/mL, a Cmax [3] of 36000 ng/mL and a Tmax [3] of 0.5 h. The AUC(0-inf) ([3]; read-out: AUCINF—pred) was 138000 ng·h/mL and the half-life ([3]; read-out: T½ (converted)) was 2.29 h.

`COCCn1nnc(-c2ccc(CCNc3nc(N)n4nc(-c5ccco5)nc4n3)cc2)n1` [Compound 47, N5-(4-(2-(2-methoxyethyl)-2H-tetrazol-5-yl)phenethyl)-2-(furan-2-yl)-[1,2,4]triazolo[1,5-a][1,3,5]triazine-5,7-diamine] gave a pIC50 (adenosine receptors A2A) of 7.86, an AUC(0-t) ([4]; 2 mg/kg, mixed administration (6 compounds per group)) of 779 ng·h/mL and a half-life ([4]; 3 mg/kg, read-out: T½ (converted)) of 2.25 h. For the same compound, the Cl_F_pred [5] was 23.1623 mL/min/kg, the AUC(0-t) [5, 10] was 1500 ng·h/mL and the Cmax [5, 10] was 538 ng/mL.
